Measured values reported in patent publication US5990146A, “Benzimidazoles for inhibiting protein tyrosine kinase mediated cellular proliferation” (Warner-Lambert Company, priority 1998, dated 1999).
Where a name gives a salt, the structure may show the parent alone.

Experiments:
Assay type in all cases: biochemical
[1] = molecular target: T1, PDGF receptor tyrosine kinase (mouse PDGF-β) (Mus musculus, UniProt P05622); test: PDGFr tyrosine kinase assay (poly glutamate-tyrosine phosphorylation); details: Table 1; 10 minutes at 25° C.
T1 construct: PCR primers are designed to amplify a fragment of DNA that codes for the intracellular tyrosine kinase domain; made in house; host or cells: Sf9 insect cells (baculovirus), cell lysate
T1 sequence (P05622 599-961 limits assumed): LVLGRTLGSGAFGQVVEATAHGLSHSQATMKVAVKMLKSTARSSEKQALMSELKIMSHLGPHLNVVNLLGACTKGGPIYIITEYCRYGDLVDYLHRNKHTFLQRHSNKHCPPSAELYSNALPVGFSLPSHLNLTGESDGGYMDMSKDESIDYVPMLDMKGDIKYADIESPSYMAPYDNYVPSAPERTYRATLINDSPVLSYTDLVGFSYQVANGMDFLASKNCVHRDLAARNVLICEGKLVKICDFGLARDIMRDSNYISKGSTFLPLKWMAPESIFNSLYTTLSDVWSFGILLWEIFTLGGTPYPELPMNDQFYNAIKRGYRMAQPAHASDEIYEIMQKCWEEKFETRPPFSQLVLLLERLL
Procedure: Platelet Derived Growth Factor Receptor (PDGFr) and Fibroblast Growth Factor Receptor (FGFr)
Full length cDNAs for the mouse PDGF-β and human FGF-1 (flg) receptor tyrosine kinases were obtained from J. Escobedo and are prepared as described in J. Biol. Chem., 262: 1482-1487 (1991). PCR primers are designed to amplify a fragment of DNA that codes for the intracellular tyrosine kinase domain. The fragment is melded into a baculovirus vector, cotransfected with AcMNPV DNA, and the recombinant virus isolated. SF9 insect cells are infected with the virus to overexpress the protein, and the cell lysate is used for the assay.
The assay is performed in 96-well plates (100 μL/incubation/well), and conditions are optimized to measure the incorporation of ^32 p from [γ^32 P]-ATP into a glutamate-tyrosine copolymer substrate. Briefly, to each well is added 82.5 μL of incubation buffer containing 25 mM Hepes (pH 7.0), 150 mM NaCl, 0.1% Triton X-100, 0.2 mM PMSF, 0.2 mM sodium vanadate, 10 mM manganese chloride, and 750 μg/mL of poly (4:1) glutamate-tyrosine followed by 2.5 μL of inhibitor and 5 μL of enzyme lysate (7.5 μg/μL FGFR-TK or 6.0 μg/μL PDGFR-TK) to initiate the reaction. Following a 10 minute incubation at 25° C., 10 μL of [γ^32 P]-ATP (0.4 μCi plus 50 μM ATP) is added to each well and samples are incubated for an additional 10 minutes at 25° C. The reaction is terminated by the addition of 100 μL of 30% trichloroacetic acid (TCA) containing 20 mM sodium pyrophosphate and precipitation of material onto glass fiber filter mats (Wallac). Filters are washed 3 times with 15% TCA containing 100 mM sodium pyrophosphate and the radioactivity retained on the filters counted in a Wallac 1250 Betaplate reader. Nonspecific activity is defined as radioactivity retained on the filters following incubation of samples with buffer alone (no enzyme). Specific enzymatic activity is defined as total activity (enzyme plus buffer) minus nonspecific activity.

[2] = molecular target: T2, FGF receptor tyrosine kinase (human FGF-1 (flg)) (Homo sapiens, UniProt P11362); test: FGFr tyrosine kinase assay (poly glutamate-tyrosine phosphorylation); details: Table 1; 10 minutes at 25° C.
T2 construct: PCR primers are designed to amplify a fragment of DNA that codes for the intracellular tyrosine kinase domain; made in house; host or cells: Sf9 insect cells (baculovirus), cell lysate
T2 sequence (P11362 478-767 limits assumed): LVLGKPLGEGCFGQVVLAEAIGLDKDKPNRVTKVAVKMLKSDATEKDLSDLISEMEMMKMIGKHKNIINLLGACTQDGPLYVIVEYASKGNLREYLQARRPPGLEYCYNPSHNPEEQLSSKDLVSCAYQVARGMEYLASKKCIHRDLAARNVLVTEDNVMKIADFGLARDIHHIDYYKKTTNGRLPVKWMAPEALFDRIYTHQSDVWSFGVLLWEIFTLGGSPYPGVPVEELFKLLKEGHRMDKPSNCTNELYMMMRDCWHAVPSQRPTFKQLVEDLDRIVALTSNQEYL
Procedure: Platelet Derived Growth Factor Receptor (PDGFr) and Fibroblast Growth Factor Receptor (FGFr) Full length cDNAs for the mouse PDGF-β and human FGF-1 (flg) receptor tyrosine kinases were obtained from J. Escobedo and are prepared as described in J. Biol. Chem., 262: 1482-1487 (1991). PCR primers are designed to amplify a fragment of DNA that codes for the intracellular tyrosine kinase domain. The fragment is […] into a baculovirus vector, cotransfected with AcMNPV DNA, and the recombinant virus isolated. SF9 insect cells are infected with the virus to overexpress the protein, and the cell lysate is used for the […] and FGFr The assay is performed in 96-well plates (100 μL/incubation/well), and conditions are optimized to measure the incorporation of ^32 p from [γ^32 P]-ATP into a glutamate-tyrosine copolymer substrate. […] The reaction is terminated by the addition of 100 μL of 30% trichloroacetic acid (TCA) containing 20 mM sodium pyrophosphate and precipitation of material onto glass fiber filter mats (Wallac). Filters are washed 3 times with 15% TCA containing 100 mM sodium pyrophosphate and the radioactivity retained on the filters counted in a Wallac 1250 Betaplate reader. Nonspecific activity is defined as radioactivity retained on the filters following incubation of samples with buffer alone (no enzyme). Specific enzymatic activity is defined as total activity (enzyme plus buffer) minus nonspecific activity.

insulin receptor (INSr) = molecular target: T3, insulin receptor (INSr) (Homo sapiens, UniProt P06213); test: Insulin receptor kinase assay; details: Table 1; as for EGF receptor with 10 mM manganese chloride
T3 construct: An assay using the intracellular kinase domains of insulin receptor (INSr) is performed
T3 sequence (P06213 1023-1298 limits assumed, species assumed): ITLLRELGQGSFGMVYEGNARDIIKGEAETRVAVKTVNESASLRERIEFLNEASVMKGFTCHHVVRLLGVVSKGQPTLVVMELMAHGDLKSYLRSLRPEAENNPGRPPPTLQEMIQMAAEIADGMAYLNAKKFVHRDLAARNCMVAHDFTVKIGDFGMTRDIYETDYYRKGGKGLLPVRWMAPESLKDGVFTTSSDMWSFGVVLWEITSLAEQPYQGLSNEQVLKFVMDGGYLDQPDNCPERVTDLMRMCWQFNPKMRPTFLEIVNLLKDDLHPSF

c-Src = molecular target: T4, c-Src (Homo sapiens, UniProt P12931); test: c-Src kinase assay; details: Table 1; 5 μM ATP, room temperature, 10 minutes
T4 construct: made in house; host or cells: baculovirus infected insect cells
T4 sequence (P12931 whole entry, species assumed): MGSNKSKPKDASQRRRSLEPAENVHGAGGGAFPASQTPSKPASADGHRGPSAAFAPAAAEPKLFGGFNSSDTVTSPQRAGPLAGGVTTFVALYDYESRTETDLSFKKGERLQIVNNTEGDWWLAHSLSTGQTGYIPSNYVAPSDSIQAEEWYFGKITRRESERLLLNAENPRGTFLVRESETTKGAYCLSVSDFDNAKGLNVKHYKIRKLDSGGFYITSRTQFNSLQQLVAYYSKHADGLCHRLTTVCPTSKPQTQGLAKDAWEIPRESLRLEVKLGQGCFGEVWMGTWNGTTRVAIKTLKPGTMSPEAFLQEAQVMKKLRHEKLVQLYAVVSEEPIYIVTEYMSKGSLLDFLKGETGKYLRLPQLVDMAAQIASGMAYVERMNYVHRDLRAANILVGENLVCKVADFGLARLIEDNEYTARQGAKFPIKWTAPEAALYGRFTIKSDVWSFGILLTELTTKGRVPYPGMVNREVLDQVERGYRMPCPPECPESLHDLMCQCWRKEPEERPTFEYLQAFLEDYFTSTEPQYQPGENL
Procedure: c-Src kinase is purified from baculovirus infected insect cell lysates using an antipeptide monoclonal antibody directed against the N-terminal 2-17 amino acids as described previously by Fry, et al, Anticancer Drug Design. 9: 331-351 (1994). […] At the end of the lysate incubation, the beads are rinsed 3 times in lysis buffer, resuspended in lysis buffer containing 10% glycerol, and frozen. These latex beads are thawed, rinsed 3 times in assay buffer which is comprised of 40 mM tris pH 7.5, 5 mM magnesium chloride, and suspended in the same buffer. […] The reaction is started at room temperature by addition of the ATP and quenched 10 minutes later by the addition of 125 μL of 30% TCA, 0.1 M sodium pyrophosphate for 15 minutes on ice. The plate is then filtered and the wells washed with two 250-μL aliquots of 15% TCA, 0.1 M pyrophosphate. The filters are punched, counted in a liquid scintillation counter, and the data examined for inhibitory activity in comparison to a known inhibitor such as erbstatin. The method is described more fully in J. Med. Chem., 37: 598-609 (1994).

SMILES	IC50 [1] [µM]	IC50 [2] [µM]	IC50 (insulin receptor (INSr)) [µM]	IC50 (c-Src) [µM]
c1ccc(-n2cnc3cc(OCC4CO4)ccc32)cc1 (racemic) [Example 34, 5-(2,3-Epoxypropoxy)-1-phenylbenzimidazole]	0.3			
Oc1cccc(-n2cnc3ccccc32)c1 [Example 2, 1-(3-Hydroxyphenyl)benzimidazole Hydrochloride]	3.8	50	> 50	> 50
O=Cc1cccc(-n2cnc3ccccc32)c1 [Example 4, 1-(3-Formylphenyl)benzimidazole Hydrochloride]	6.8	> 50	> 50	> 50
COc1ccc(-n2cnc3ccccc32)cc1 [Example 5, 1-(4-Methoxyphenyl)benzimidazole Hydrochloride]	12		> 50	> 50
Oc1ccc(-n2cnc3ccccc32)cc1 [Example 6, 1-(4-Hydroxyphenyl)benzimidazole Hydrochloride]	1.8	5.8	> 50	> 50
O=Cc1ccc(-n2cnc3ccccc32)cc1 [Example 9, 1-(4-Formylphenyl)benzimidazole]	13.5			> 50
c1ccc2c(c1)ncn2-c1ccncc1 [Example 10, 1-(4-Pyridinyl)benzimidazole dihydrochloride]	12.3	50	> 50	> 50
Clc1ccc2c(c1)ncn2-c1ccccc1 [Example 15, 5-Chloro-1-phenylbenzimidazole]	4	51		
CC(=O)c1ccc2c(c1)ncn2-c1ccccc1 [Example 20, 5-Acetyl-1-phenylbenzimidazole]	0.9	14		
c1ccc(-n2cnc3cnccc32)cc1 [Example 22, 1-Phenylimidazo-1H-imidazol[4,5-c]pyridine Hydrochloride]	10	49	> 50	> 50
CC(=O)Nc1ccc2c(c1)ncn2-c1ccccc1 [Example 23, 5-Acetamido-1-phenylbenzimidazole Hydrochloride]	3.3	32	> 50	< 50
CCC(=O)Nc1ccc2c(c1)ncn2-c1ccccc1 [Example 24, 5-Propionamido-1-phenylbenzimidazole Hydrochloride]	2.4	41	> 50	> 50
C=CC(=O)Nc1ccc2c(c1)ncn2-c1ccccc1 [Example 25, 5-Acrylamido-1-phenylbenzimidazole]	5.3	37		> 50
CCOc1ccc2c(c1)ncn2-c1ccccc1 [Example 28, 5-Ethoxy-1-phenylbenzimidazole Hydrochloride]	0.2	26	> 50	
CCCOc1ccc2c(c1)ncn2-c1ccccc1 [Example 29, 1-Phenyl-5-propoxybenzimidazole hydrochloride]	0.3	35	> 50	> 50
CC(C)Oc1ccc2c(c1)ncn2-c1ccccc1 [Example 30, 5-Isopropoxy-1-phenylbenzimidazole Hydrochloride]	< 50		> 50	
CCCCOc1ccc2c(c1)ncn2-c1ccccc1 [Example 31, 5-Butoxy-1-phenylbenzimidazole Hydrochloride]			> 50	

SMILES	IC50 [1] [µM]	IC50 [2] [µM]	IC50 (insulin receptor (INSr)) [µM]	IC50 (c-Src) [µM]
OCC(O)COc1ccc2c(c1)ncn2-c1ccccc1 (stereo not drawn) [Example 33, 5-(2,3-Dihydroxypropoxy)-1-phenylbenzimidazole Hydrochloride]	0.3	15		
Clc1ccc2ncn(-c3ccccc3)c2c1 [Example 42, 6-Chloro-1-phenylbenzimidazole]	5.4			
CCOc1ccc2ncn(-c3ccccc3)c2c1 [Example 44, 6-Ethoxy-1-phenylbenzimidazole]	9.6	> 50		
COc1cc2ncn(-c3ccccc3)c2cc1OC [Example 46, 5,6-Dimethoxy-1-phenylbenzimidazole Hydrochloride]		25	> 50	40
Oc1cc2ncn(-c3ccccc3)c2cc1O [Example 47, 5,6-Dihydroxy-1-phenylbenzimidazole Hydrochloride]	2.3	11	> 50	
c1ccc(-n2cnc3cc4c(cc32)OCO4)cc1 [Example 48, 5,6-Methylenedioxy-1-phenylbenzimidazole Hydrochloride]		27	> 50	
COc1cc2ncn(-c3ccccc3)c2cc1C [Example 49, 5-Methoxy-6-methyl-1-phenylbenzimidazole Hydrochloride]			> 50	
Cc1cc2c(cc1O)ncn2-c1ccccc1 [Example 50, 5-Hydroxy-6-methyl-1-phenylbenzimidazole Hydrochloride]			> 50	
O=C(O)c1cc2c(cc1O)ncn2-c1ccccc1 [Example 52, 5-Hydroxy-1-phenylbenzimidazole-6-carboxylic acid Hydrobromide]		22		
COc1cc2ncn(-c3ccccc3)c2cc1C=O [Example 54, 5-Methoxy-1-phenylbenzimidazole-6-carboxaldehyde Hydrochloride]	1.1		> 50	
COc1ccc2c(c1)ncn2-c1ccsc1 [Example 56, 5-Methoxy-1-(3-thienyl)benzimidazole Hydrochloride]	0.7	6.5		> 50
OCCCCOc1ccc2c(c1)ncn2-c1ccccc1 [Example 57, 5-(4-Hydroxybutoxy)-1-phenylbenzimidazole Hydrochloride]	0.5	25		> 50
CN(C)CCCCOc1ccc2c(c1)ncn2-c1ccccc1 [Example 58, 5-[4-(N,N-Dimethylamino)butoxy]-1-phenylbenzimidazole Dihydrochloride]	0.2	6		50
COc1ccc2c(ncn2-c2ccccc2)c1OC [Example 60, 4,5-Dimethoxy-1-phenylbenzimidazole Hydrochloride]				> 50
Oc1ccc2c(ncn2-c2ccccc2)c1O [Example 61, 4,5-Dihydroxy-1-phenylbenzimidazole Hydrochloride]		1.9		
COc1c(O)ccc2c1ncn2-c1ccccc1 [Example 62, 5-Hydroxy-4-methoxy-1-phenylbenzimidazole Hydrochloride]	50	50		
COc1ccc2c(ncn2-c2ccccc2)c1O [Example 63, 4-Hydroxy-5-methoxy-1-phenylbenzimidazole Hydrochloride]	< 50			40
